Experimental findings from US20220288004A1, “TREATMENT AND PREVENTION OF AGING RELATED-DISEASE AND/OR AGING BY THE INHIBITION OF SPHINGOLIPIDS” (ECOLE POLYTECHNIQUE FEDERALE DE LAUSANNE (EPFL), priority 2019, published 2022) are described below.

For test [1], the system named is sphingolipid de novo synthesis pathway. The test is described as follows: Measurement of sphingolipids in tissues of aged mice treated with myriocin. Format: in vivo, mouse. The protocol:
To examine whether a causal relationship could underlie the correlation between SphPC1 and muscle mass and function, it was tested whether inhibition of sphingolipid de novo biosynthesis pathway could protect against age-related muscle dysfunction. Aged (18-month-old) C57Bl/6JRj mice were treated for 5 months on chow diet with myriocin, a specific inhibitor of SPT, the first and rate-limiting enzyme of the sphingolipid de novo synthesis pathway, and whose expression in skeletal muscle was negatively correlated with muscular fitness in BXDs.
Animals. Young (2-month-old) and aged (18-month-old) C57Bl/6JRj mice were purchased from Janvier Labs. EchoMRI measuring the fat and lean body mass, were measured before and after the treatment. The dose of myriocin was 0.4 mg/kg/3 times a week. Myriocin (Enzo Life Sciences, Farmingdale, N.Y.) was first dissolved in DMSO which was then mixed with PBS so that each mouse received 1.5 μL DMSO per injection. Animals were fed on a standard chow diet. All animals were housed in micro-isolator cages in a room illuminated from 7:00 AM to 7:00 PM with ad libitum access to diet and water. All the animal experiments are authorized by animal license 2890.1 and 3341 in Canton of Vaud, Switzerland.
Measurement of sphingolipids. Plasma (100 μL) and weighed tissue samples (20-60 mg) were transferred to 2 ml Safe-Lock PP-tubes, and extracted. In brief, samples were homogenized using two 6 mm steal beads on a Mixer Mill (Retsch, Haan, GER; 2×10 sec, frequency 30/s) in 700 μL MTBE/MeOH (3/1, v/v) containing 500 μmol butylated hydroxytoluene, 1% acetic acid, and 200 μmol of internal standards (IS, d18:1/17:0 ceramide, d18:1/17:0 sphingomyelin, Avanti Polar Lipids, Alabaster, Ala., USA) per sample. Total lipid extraction was performed under constant shaking for 30 min at RT. After addition of 140 μL dH2O and further incubation for 30 min on RT, samples were centrifuged at 1,000×g for 15 min to establish phase separation. 500 μL of the upper, organic phase were collected and dried under a stream of nitrogen. Lipids were resolved in 700 μL 2-propanol/methanol/water (7/2.5/1, v/v/v) for UPLC-MS analysis. Remaining tissues were dried, solubilized in NaOH (0.3 N) at 65° C. for 4 h and the protein content was determined using Pierce™ BCA reagent (Thermo Fisher Scientific, Waltham, Mass., USA) and BSA as standard.
Chromatographic separation was modified after Knittelfelder et al. using an ACQUITY-UPLC system (Waters Corporation), equipped with a Luna omega C18 column (2.1×50 mm, 1.6 μm; Phenomenex) starting a 20 min linear gradient with 80% solvent A (MeOH/H2O, 1/1, v/v; 10 mM ammonium acetate, 0.1% formic acid, 8 μM phosphoric acid). The column compartment was kept on 50° C. A EVOQ Elite™ triple quadrupole mass spectrometer (Bruker) equipped with an ESI source was used for detection of lipids in positive ionization mode. Lipid species were analyzed by selected reaction monitoring (ceramide, [M+H]+ to m/z 264.3, 22 eV, 60 ms; sphingomyelin, [M+H]+ to m/z 184.1, 20 eV, 40 ms; resolution 0.7 Q1/Q3). Data acquisition was done by MS Workstation (Bruker). Data were normalized for recovery, extraction-, and ionization efficacy by calculating analyte/IS ratios (AU) and expressed as AU/g tissue or AU/mL plasma.
Measurement of deoxysphingolipids. […] An aliquot (50 μL) of homogenate was dried under air and resuspended in RIPA buffer for protein quantification using BCA assay (BCA Protein Assay, Lambda, Biotech Inc., US). […]

The next test relates to aged C57Bl/6JRj mice. The test is described as follows: Novel object recognition in aged mice. Format: in vivo, mouse. As to the method: Novel Object Recognition. The novel object recognition task is used to assess recognition memory of mice. It is based on the natural tendency of rodents to explore a novel object by comparison to a familiar one. A habituation phase is realized to familiarize animals to the arena context. 24 hours later, during the acquisition phase (learning phase), two identical objects are placed in the arena and presented to the mouse. During the retention phase (3 hours following the acquisition phase), one of the two familiar objects is replaced by a novel one. Measures of duration and number of exploration for each object are realized, during both acquisition and retention phases, and a Recognition Index is calculated.

The subject of test [2] is freshly isolated MuSCs from aged C57BL/6JRj mice. The test is described as follows: Ex vivo analysis of MuSCs cultured in myriocin containing medium. Type of test: cell-based, mouse. The protocol:
Ex vivo analysis of MuSCs. MuSCs were isolated as described above, and seeded in 96- or 48-well plates. The cells were incubated in 30 μM myriocin containing medium (Ham's F-10 nutrient mixture, FBS 20%, basic fibroblast growth factor 2.5 ng/mL, penicillin 100 U/mL, streptomycin 100 μg/mL) for 72 hours. PFA 4% was applied for 15 min, the cells were washed three times for 10 min with PBS, and were blocked in 2% BSA in PBS. The cells were then incubated in primary antibodies MYOD (1:50, LabForce) and MYOG (1:50, Santa Cruz) overnight at 4° C. Secondary antibodies were coupled with Alexa-488 or Alexa-568 fluorochromes (Life Technology) and mounted with Dako Mounting Medium. Leica DMI 4000 microscope was used to image the cells. Quantification of the MYOD+ and MYOG+ cell number was based on more than 500 cells per condition.

[3] abbreviates: quadriceps of aged myriocin treated mice.

Each structure is given as a SMILES string.

On to `CCCCCCC(=O)CCCCCCC=CCC(O)C(O)C(N)(CO)C(=O)O` (stereo not shown) [myriocin, 2-Amino-3,4-dihydroxy-2-(hydroxymethyl)-14-oxoicos-6-enoic acid], for which the “total ceramide contents of skeletal muscle” value in test [1] (aged (18-month-old) C57Bl/6JRj mice, myriocin 0.4 mg/kg i.p. 3 times per week, 5 months, vs DMSO) is “reduced”. In addition, the “skeletal muscle deoxysphingolipid contents” value in test [1] (aged mice, myriocin 0.4 mg/kg i.p. 3 times per week, 5 months, smaller effect than on canonical sphingolipids) is on record as “reduced”. Besides, in test [1] (setting [3]), the “sphinganine (SA) level in skeletal muscle” value is “lower levels” and the “sphingosine (SO) level in skeletal muscle” value is given as “lower levels”. In addition, in test [1] (quadriceps, aged mice, myriocin 0.4 mg/kg i.p. 3 times per week, 5 months), the “individual ceramide species in skeletal muscle” value was “reduced”. In addition, the recognition index entry with aged C57Bl/6JRj mice (myriocin 5 months vs DMSO) was “higher”. The “time exploring novel object relative to familiar object” value with aged C57Bl/6JRj mice (myriocin 5 months vs DMSO treated counterparts) is recorded as “more”. For the same molecule, in test [2] (30 μM myriocin, 72 h, vs DMSO), the MYOD protein level entry is on record as “elevated” and the MYOG protein level entry is reported as “elevated”. The “Ki67+ MuSC count” value in test [2] (MuSCs from untreated aged mice, 72 h in myriocin containing medium vs DMSO) is listed as “higher”.
